Assays:
ACVR1 = target: T1, ACVR1 (Homo sapiens, UniProt Q04771); experiment: Kinobeads competition binding: ACVR1; conditions: target ACVR1;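 also: target engagement share of this target among all targets at its Kdapp concentration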
T1 construct: to maximize the representation of endogenous proteins; endogenous in cells
T1 sequence (Q04771 21-509): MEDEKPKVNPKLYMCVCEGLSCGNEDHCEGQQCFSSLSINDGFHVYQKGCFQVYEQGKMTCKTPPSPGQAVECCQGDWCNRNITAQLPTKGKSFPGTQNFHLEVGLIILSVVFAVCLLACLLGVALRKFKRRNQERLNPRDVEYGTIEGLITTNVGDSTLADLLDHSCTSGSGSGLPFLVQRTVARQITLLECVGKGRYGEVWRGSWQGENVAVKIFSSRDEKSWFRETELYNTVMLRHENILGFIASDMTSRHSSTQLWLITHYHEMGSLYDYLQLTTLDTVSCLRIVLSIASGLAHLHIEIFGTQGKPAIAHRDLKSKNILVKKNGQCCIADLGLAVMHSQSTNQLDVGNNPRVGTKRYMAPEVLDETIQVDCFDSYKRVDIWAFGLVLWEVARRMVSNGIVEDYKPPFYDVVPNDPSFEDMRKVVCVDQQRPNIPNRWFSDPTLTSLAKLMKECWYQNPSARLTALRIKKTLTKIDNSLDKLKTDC
From the text: Supplement 41589_2023_1459_MOESM4_ESM.xlsx, sheet "CATDS matrix" | column: ACVR1

AIFM1 = experiment: Kinobeads competition binding: AIFM1; design: species or system human; conditions: target AIFM1
ATR = experiment: Kinobeads competition binding: ATR; design: species or system human; conditions: target ATR
AURKA = target: T2, AURKA (Homo sapiens, UniProt O14965); experiment: Kinobeads competition binding: AURKA; conditions: target AURKA;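 also: selectivity score: engagement of this protein divided by summed engagement of all targets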
T2 construct: endogenous in cells
T2 sequence (O14965 1-403): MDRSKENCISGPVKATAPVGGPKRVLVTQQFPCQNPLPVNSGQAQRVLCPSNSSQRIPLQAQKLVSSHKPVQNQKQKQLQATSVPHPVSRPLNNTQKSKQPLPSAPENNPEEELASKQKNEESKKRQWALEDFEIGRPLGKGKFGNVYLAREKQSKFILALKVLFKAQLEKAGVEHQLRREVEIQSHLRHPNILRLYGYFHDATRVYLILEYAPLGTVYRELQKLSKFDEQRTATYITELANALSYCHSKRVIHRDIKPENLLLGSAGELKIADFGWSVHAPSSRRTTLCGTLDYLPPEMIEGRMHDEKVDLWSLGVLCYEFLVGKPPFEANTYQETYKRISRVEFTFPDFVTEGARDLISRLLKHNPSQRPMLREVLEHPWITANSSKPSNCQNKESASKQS
From the text: Supplement 41589_2023_1459_MOESM4_ESM.xlsx, sheet "CATDS matrix" | column: AURKA

BMPR1A = experiment: Kinobeads competition binding: BMPR1A; design: species or system human; conditions: target BMPR1A
CAMK2D = target: T3, CAMK2D (Homo sapiens, UniProt Q13557); experiment: Kinobeads competition binding: CAMK2D; conditions: target CAMK2D;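 also: selectivity score: engagement of this protein divided by summed engagement of all targets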
T3 construct: endogenous in cells
From the text: Supplement 41589_2023_1459_MOESM4_ESM.xlsx, sheet "CATDS matrix" | column: CAMK2D

CIT = target: T4, CIT (Homo sapiens, UniProt O14578); experiment: Kinobeads competition binding: CIT; conditions: target CIT
T4 construct: endogenous in cells
From the text: Supplement 41589_2023_1459_MOESM4_ESM.xlsx, sheet "CATDS matrix" | column: CIT

CSNK1G1 = experiment: Kinobeads competition binding: CSNK1G1; design: species or system human; conditions: target CSNK1G1;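 also: share of total target engagement due to this protein at one drug concentration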
IRAK3 = experiment: Kinobeads competition binding: IRAK3; design: species or system human; conditions: target IRAK3
LATS1 = target: T5, LATS1 (Homo sapiens, UniProt O95835); experiment: Kinobeads competition binding: LATS1; conditions: target LATS1
T5 construct: endogenous in cells
T5 sequence (O95835 1-1130): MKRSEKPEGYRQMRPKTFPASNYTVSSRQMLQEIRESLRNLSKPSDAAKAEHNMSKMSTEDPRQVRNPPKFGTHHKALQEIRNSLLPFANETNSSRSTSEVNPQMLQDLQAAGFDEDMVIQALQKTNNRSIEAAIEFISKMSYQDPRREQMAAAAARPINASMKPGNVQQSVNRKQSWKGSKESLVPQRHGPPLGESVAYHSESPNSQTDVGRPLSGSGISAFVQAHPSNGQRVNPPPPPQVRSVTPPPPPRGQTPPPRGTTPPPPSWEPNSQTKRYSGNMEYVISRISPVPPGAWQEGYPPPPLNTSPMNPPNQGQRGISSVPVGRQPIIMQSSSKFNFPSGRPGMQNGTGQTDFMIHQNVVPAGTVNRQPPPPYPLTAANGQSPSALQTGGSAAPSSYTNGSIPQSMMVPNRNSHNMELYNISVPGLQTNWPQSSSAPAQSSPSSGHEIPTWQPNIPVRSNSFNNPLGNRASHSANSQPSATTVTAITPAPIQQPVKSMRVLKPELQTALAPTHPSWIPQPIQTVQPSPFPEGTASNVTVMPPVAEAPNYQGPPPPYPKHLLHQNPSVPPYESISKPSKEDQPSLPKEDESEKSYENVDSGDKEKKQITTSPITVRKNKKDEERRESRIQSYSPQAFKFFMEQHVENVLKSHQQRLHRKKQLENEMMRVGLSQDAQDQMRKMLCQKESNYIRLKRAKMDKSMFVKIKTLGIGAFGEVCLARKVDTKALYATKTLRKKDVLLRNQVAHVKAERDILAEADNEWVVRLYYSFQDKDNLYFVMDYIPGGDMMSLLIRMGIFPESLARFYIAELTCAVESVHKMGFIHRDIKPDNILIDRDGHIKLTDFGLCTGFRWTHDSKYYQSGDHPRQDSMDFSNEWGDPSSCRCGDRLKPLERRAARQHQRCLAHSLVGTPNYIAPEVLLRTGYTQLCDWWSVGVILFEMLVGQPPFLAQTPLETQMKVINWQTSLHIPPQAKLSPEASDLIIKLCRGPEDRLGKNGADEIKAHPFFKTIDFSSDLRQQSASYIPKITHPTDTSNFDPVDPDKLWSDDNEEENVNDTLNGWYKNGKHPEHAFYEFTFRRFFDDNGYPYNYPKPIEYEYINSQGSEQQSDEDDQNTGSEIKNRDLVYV
From the text: Supplement 41589_2023_1459_MOESM4_ESM.xlsx, sheet "CATDS matrix" | column: LATS1

PIK3CG = target: T6, PIK3CG (Homo sapiens, UniProt P48736); experiment: Kinobeads competition binding: PIK3CG; conditions: target PIK3CG;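 also: selectivity score: engagement of this protein divided by summed engagement of all targets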
T6 construct: endogenous in cells
From the text: Supplement 41589_2023_1459_MOESM4_ESM.xlsx, sheet "CATDS matrix" | column: PIK3CG

PIM1 = target: T7, PIM1 (Homo sapiens, UniProt P11309); experiment: Kinobeads competition binding: PIM1; conditions: target PIM1
T7 construct: a mixture of lysates from five cancer cell lines; endogenous in cells

SMILES | CATDS (ACVR1) | CATDS (AIFM1) | CATDS (ATR) | CATDS (AURKA) | CATDS (BMPR1A) | CATDS (CAMK2D) | CATDS (CIT) | CATDS (CSNK1G1) | CATDS (IRAK3) | CATDS (LATS1) | CATDS (PIK3CG) | CATDS (PIM1)
CCc1cc2c(cc1N1CCC(N3CCOCC3)CC1)C(C)(C)c1[nH]c3cc(C#N)ccc3c1C2=O [Alectinib] | 0 | 0 | 0 | 0 | 0 | 0 | 0 | 0 | 0 | 0 | 0 | 0
CN(C)C/C=C/C(=O)Nc1cc2c(Nc3ccc(F)c(Cl)c3)ncnc2cc1O[C@H]1CCOC1 [Afatinib] | 0 | 0 | 0 | 0 | – | 0 | 0 | – | – | 0 | 0 | –
Nc1ncnc2[nH]c(-c3ccccc3)nc12 [AH5015_KCGS] | 0 | 0 | 0 | 0 | 0 | 0 | 0 | 0 | 0 | 0 | 0 | 0
CCN1CCN(Cc2ccc(Nc3ncc(F)c(-c4cc(F)c5nc(C)n(C(C)C)c5c4)n3)nc2)CC1 [Abemaciclib] | 0 | 0 | 0 | 0 | 0 | 0.08654 | 0.02291 | 0 | 0 | 0 | 0 | 0.03255
N#CC1(c2ccc(NC(=O)c3cccnc3NCc3ccncc3)cc2)CCCC1 [Apatinib] | 0 | 0 | 0 | 0 | 0 | 0 | 0 | 0 | 0 | 0 | 0 | 0

— PMC11062922 (Nature Chemical Biology, 2023)
